Read-outs that look alike come from different tables or passages of the source.
Assays:
Experiment in all cases: Determination of MIC values (BHI broth, 96 well microtiter plate)
Format in all cases: cell-based
Streptococcus pneumoniae = settings: BHI broth; for MIC: Streptococcus pneumoniae, read-out: MIC S. pneu
How it was run: (§1)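 Here, each test series spans final concentrations of 25 to 0.39 µg/mL in BHI broth, with DMSO as diluent. Plates seeded at 10^5–10^6 cells/mL are kept at 37° C and approx. 7-10% CO2 for about 16 hours before growth is scored.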

[1] = system: methicillin-resistant Staphylococcus aureus (MRSA); settings: BHI broth; for MIC: Staphylococcus aureus, MRSA, read-out: MIC MRSA
How it was run: as §1

[2] = system: vancomycin-resistant Enterococcus spp. (VRE); settings: BHI broth; for MIC: Enterococcus, VRE, read-out: MIC VREF
How it was run: as §1

[3] = 37° C., overnight (about 16 hours)
[4] = 16 h, 37° C., overnight (about 16 hours)

| SMILES | MIC (Streptococcus pneumoniae; S. pneu, overnight 37° C.) [µg/mL] | MIC ([1]; overnight 37° C.) [µg/mL] | MIC ([2]; VREF, overnight 37° C.) [µg/mL] | MIC (Streptococcus pneumoniae; 37° C., about 16 hours) [µg/mL] | MIC ([1]; 16 h, 37° C., about 16 hours) [µg/mL] | MIC ([2]; 16 h, 37° C., about 16 hours) [µg/mL] | also measured |
| --- | --- | --- | --- | --- | --- | --- | --- |
| CCOc1cc(-c2cn(C(=O)OC(C)(C)C)c3ccc(Br)cc23)nc2ccc(I)cc12 [Example 361] | > 25 | > 25 | > 25 |  |  |  |  |
| NCc1ccc(CNC(=O)c2cc(-c3c[nH]c4ccc(Br)cc34)nc3cc(C#CCN4CC=CCC4)ccc23)cc1 [Example 304] | < 7 | < 7 | < 7 |  |  |  |  |
| COc1ccc2[nH]cc(-c3ccc4ccc(C)cc4n3)c2c1 [Example 479] |  |  |  | < 25 | > 25 | > 25 |  |
| Fc1ccc2c(CCl)cc(-c3c[nH]c4ccc(Br)cc34)nc2c1 [Example 508] |  |  |  | < 7 | < 7 | < 7 |  |
| COc1ccc2nc(-c3c[nH]c4ccc(Br)cc34)ccc2c1 [Example 412] |  |  |  | > 25 | < 7 | > 25 |  |
| Cn1cc(-c2cc(C(=O)NCC3CCC(CN)CC3)c3ccc(I)cc3n2)c2cc(Br)ccc21 (stereo not drawn) [Example 331] | < 7 | < 7 | < 7 |  |  |  |  |
| COc1ccc2[nH]c(C)c(-c3ccc4cccc(C)c4n3)c2c1 [Example 424] |  |  |  | < 25 | < 25 | > 25 |  |
| Cc1ccc2nc(-c3c(C)[nH]c4ccc(Cl)cc34)ccc2c1 [Example 437] |  |  |  | < 7 | < 7 | > 25 |  |
| Fc1cccc2[nH]cc(-c3cc(Cl)c4ccccc4n3)c12 [Example 338] | < 7 | < 25 | > 25 |  |  |  |  |
| COc1ccc2[nH]cc(-c3cc(Cl)c4ccc(Cl)cc4n3)c2c1 [Example 464] |  |  |  | < 7 | < 7 | > 25 |  |
| OCc1cc(-c2c[nH]c3ccc(Br)cc23)nc2cc(Cl)c(C#CCN3CCCCC3)cc12 [Example 518] |  |  |  | < 7 | < 7 | < 7 |  |
| NCc1ccc(CNC(=O)c2cc(-c3c[nH]c4ccc(Br)cc34)nc3cc(Cl)c(C#CCN4CCc5ccccc5C4)cc23)cc1 [Example 281] | > 25 | < 25 | > 25 |  |  |  |  |
| O=C(NCc1nc2ccccc2[nH]1)c1cc(-c2c[nH]c3ccc(Br)cc23)nc2ccc(I)cc12 [Example 173] |  |  |  |  |  |  | MIC (Streptococcus pneumoniae; [3]): < 7 µg/mL; MIC [1, 4]: < 7 µg/mL; MIC [2, 4]: > 25 µg/mL |
| NCc1ccc(CNC(=O)c2cc(-c3c[nH]c4ccc(Br)cc34)nc3c(C#CCNCCc4ccc(Cl)cc4)cccc23)cc1 [Example 301] | < 25 | < 7 | < 25 |  |  |  |  |
| CN(CC#Cc1ccc2nc(-c3cn(C)c4ccc(Br)cc34)cc(C(=O)NCCN)c2c1)C1CCCCC1 [Example 407] |  |  |  | < 7 | < 7 | < 7 |  |
| Clc1cc(-c2c(-c3ccccc3)[nH]c3ccccc23)nc2ccccc12 [Example 353] | > 25 | > 25 | > 25 |  |  |  |  |
| NCCCCNC(=O)c1cc(-c2c[nH]c3cc(F)ccc23)nc2cc(F)ccc12 [Example 496] |  |  |  | < 25 | < 25 | > 25 |  |
| OCc1cc(-c2c[nH]c3ccc(Br)cc23)nc2ccc(Cl)cc12 [Example 491] |  |  |  |  |  |  | MIC S. pneu (Streptococcus pneumoniae; 37° C., about 16 hours): < 7 µg/mL; MIC MRSA ([1]; 37° C., about 16 hours): < 7 µg/mL; MIC VREF ([2]; 37° C., about 16 hours): >25 µg/mL |
| Cn1cc(-c2cc(C(=O)NCC3CCCC(CN)C3)c3ccc(I)cc3n2)c2cc(Br)ccc21 (stereo not drawn) [Example 332] | < 7 | < 7 | < 7 |  |  |  |  |
| Cc1ccc2nc(-c3c[nH]c4ccc(C)cc34)ccc2c1 [Example 440] |  |  |  | < 25 | > 25 | > 25 |  |
| Cc1cccc2ccc(-c3c[nH]c4ccc(C#N)cc34)nc12 [Example 409] |  |  |  | > 25 | > 25 | > 25 |  |
| c1ccc(COc2ccc3[nH]cc(-c4ccc5ccccc5n4)c3c2)cc1 [Example 184] |  |  |  |  |  |  | MIC (Streptococcus pneumoniae; [3]): < 7 µg/mL; MIC [1, 4]: > 25 µg/mL; MIC [2, 4]: > 25 µg/mL |
| Cn1cc(-c2ccc3cc(Cl)ccc3n2)c2cc(O)ccc21 [Example 221] | < 7 | < 7 | < 7 |  |  |  |  |
| COc1ccc2[nH]cc(-c3ccc4cc(C)ccc4n3)c2c1 [Example 438] |  |  |  | > 25 | > 25 | > 25 |  |
| Clc1ccc2nc(-c3c[nH]c4ccc(Br)cc34)c3c(c2c1)OCCC3 [Example 503] |  |  |  | < 25 | < 7 | > 25 |  |
| Clc1ccc2nc(-c3c[nH]c4ccc(Br)cc34)ccc2c1 [Example 153] |  |  |  |  |  |  | MIC (Streptococcus pneumoniae; [3]): < 7 µg/mL; MIC [1, 4]: < 7 µg/mL; MIC [2, 4]: > 25 µg/mL |
| CCOC(=O)n1cc(-c2cc(C(=O)NCc3ccc(CN)cc3)c3cc(C#CCN4CCCCC4)ccc3n2)c2cc(Br)ccc21 [Example 337] | > 25 | > 25 | > 25 |  |  |  |  |

| SMILES | MIC (Streptococcus pneumoniae; S. pneu, overnight 37° C.) [µg/mL] | MIC ([1]; overnight 37° C.) [µg/mL] | MIC ([2]; VREF, overnight 37° C.) [µg/mL] | MIC (Streptococcus pneumoniae; 37° C., about 16 hours) [µg/mL] | MIC ([1]; 16 h, 37° C., about 16 hours) [µg/mL] | MIC ([2]; 16 h, 37° C., about 16 hours) [µg/mL] | also measured |
| --- | --- | --- | --- | --- | --- | --- | --- |
| Cn1cc(-c2cc(C(=O)NCCN)c3cc(C#CCNCC4CCCCC4)ccc3n2)c2cc(Br)ccc21 [Example 401] |  |  |  | < 7 | < 7 | < 7 |  |
| CC(=O)Oc1cccc2[nH]cc(-c3cc(Cl)c4ccccc4n3)c12 [Example 351] | < 7 | < 7 | > 25 |  |  |  |  |
| COc1ccc2nc(-c3c[nH]c4ccc(C)cc34)ccc2c1 [Example 415] |  |  |  | > 25 | < 7 | > 25 |  |
| NCC1CCC(CNC(=O)c2cc(-c3c[nH]c4ccc(Br)cc34)nc3ccc(I)cc23)CC1 (stereo not drawn) [Example 114] |  |  |  |  |  |  | MIC (Streptococcus pneumoniae; [3]): < 7 µg/mL; MIC [1, 4]: < 7 µg/mL; MIC [2, 4]: < 7 µg/mL |
| NCCNC(=O)c1cc(-c2c[nH]c3ccc(Cl)cc23)nc2c(Br)cccc12 [Example 322] | < 7 | < 7 | < 7 |  |  |  |  |
| COc1ccc(NC(=O)c2cc(-c3c[nH]c4ccc(Br)cc34)nc3ccc(C(F)(F)F)cc23)cc1 [Example 170] |  |  |  |  |  |  | MIC (Streptococcus pneumoniae; [3]): < 7 µg/mL; MIC [1, 4]: < 7 µg/mL; MIC [2, 4]: > 25 µg/mL |
| Cn1cc(-c2cc(C(=O)NCc3cccc(CN)c3)c3cc(I)ccc3n2)c2cc(Cl)ccc21 [Example 225] | < 7 | < 7 | < 7 |  |  |  |  |
| Cc1[nH]c2ccccc2c1-c1cc(Cl)c2ccccc2n1 [Example 352] | < 7 | < 7 | > 25 |  |  |  |  |
| OCc1cc(-c2c[nH]c3ccc(Br)cc23)nc2cc(F)ccc12 [Example 446] |  |  |  | < 7 | < 7 |  | MIC VREF ([2]; 37° C., about 16 hours): <7 µg/mL |
| NCCCCCCNC(=O)c1cc(-c2c[nH]c3ccc(Br)cc23)nc2ccc(I)cc12 [Example 111] |  |  |  |  |  |  | MIC (Streptococcus pneumoniae; [3]): < 7 µg/mL; MIC [1, 4]: < 7 µg/mL; MIC [2, 4]: < 7 µg/mL |
| Cn1cc(-c2cc(C(=O)NCCN)c3cc(C#CCN4CCCC4)ccc3n2)c2cc(Br)ccc21 [Example 403] |  |  |  | < 7 | < 7 | < 7 |  |
| COc1ccc2nc(-c3c[nH]c4ccc(OCc5ccccc5)cc34)ccc2c1 [Example 450] |  |  |  | > 25 | > 25 | > 25 |  |
| COc1ccc(NC(=O)CCc2cc(-c3c[nH]c4ccc(Br)cc34)nc3ccc(C#CCN4CCCCC4)cc23)cc1 [Example 266] | < 7 | < 7 | > 25 |  |  |  |  |
| NCc1ccc(CNC(=O)c2cc(-c3c[nH]c4ccc(Br)cc34)nc3ccc(C#CCNCCc4ccccc4)cc23)cc1 [Example 223] | < 7 | < 7 | < 7 |  |  |  |  |
| O=C(Nc1ccc(O)cc1)c1cc(-c2c[nH]c3ccc(Br)cc23)nc2ccc(C(F)(F)F)cc12 [Example 171] |  |  |  |  |  |  | MIC (Streptococcus pneumoniae; [3]): < 7 µg/mL; MIC [1, 4]: < 7 µg/mL; MIC [2, 4]: < 7 µg/mL |
| O=C(O)c1cc(-c2c[nH]c3ccc(Br)cc23)nc2ccc(C#CCN3CCCC3)cc12 [Example 234] | > 25 | > 25 | > 25 |  |  |  |  |
| Clc1ccc2c(Cl)cc(-c3c[nH]c4ccccc34)nc2c1 [Example 482] |  |  |  | < 7 | < 7 | < 7 |  |
| NCCNC(=O)c1cc(-c2c[nH]c3ccc(Br)cc23)nc2c(Cl)cc(I)cc12 [Example 314] | < 7 | < 7 | < 7 |  |  |  |  |
| NCc1cccc(CNC(=O)c2cc(-c3c[nH]c4ccc(Br)cc34)nc3ccc(I)cc23)c1 [Example 116] |  |  |  |  |  |  | MIC (Streptococcus pneumoniae; [3]): < 7 µg/mL; MIC [1, 4]: < 7 µg/mL; MIC [2, 4]: < 7 µg/mL |
| OCc1cc(-c2c[nH]c3ccc(Br)cc23)nc2ccccc12 [Example 442] |  |  |  | < 7 | < 7 | < 25 |  |
| NCc1cccc(CNC(=O)c2cc(-c3c[nH]c4ccc(Br)cc34)nc3cc(Cl)c(I)cc23)c1 [Example 243] | < 7 | < 7 | < 7 |  |  |  |  |
| N#CCc1cc(-c2c[nH]c3ccc(Br)cc23)nc2cc(Cl)ccc12 [Example 522] |  |  |  | < 7 | < 7 | < 25 |  |
| NCCNC(=O)c1cc(-c2c[nH]c3ccc(Br)cc23)nc2cc(F)ccc12 [Example 321] | < 7 | < 7 | < 7 |  |  |  |  |
| NCCNC(=O)c1cc(-c2c[nH]c3ccc(Br)cc23)nc2cc(Cl)ccc12 [Example 487] |  |  |  | < 7 | < 7 | < 7 |  |
| NCC(O)CNC(=O)c1cc(-c2c[nH]c3ccc(Br)cc23)nc2cc(F)ccc12 (stereo not drawn) [Example 532] |  |  |  | < 7 | < 7 | < 7 |  |
| Cn1cc(-c2cc(C(=O)NCc3cccc(CN)c3)c3cc(Cl)ccc3n2)c2cc(Br)ccc21 [Example 366] | > 25 | > 25 | > 25 |  |  |  |  |
